Laboratory results from ChEMBL document CHEMBL1201862, “PubChem BioAssay data set” (2004).
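Each compound was tested at five concentrations against cells in 96-well plates for 48 hours. GI50 marks 50% less growth.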 Active and inactive are the calls of the source. Rule as the data show it: active = GI50 up to about 1.1 µM and inactive = higher.

How the values were obtained:
Assay in all cases: NCI-60 cell line screen, 48 h
OVCAR-4 = tested on: OVCAR-4
CCRF-CEM = tested on: CCRF-CEM
NCI/ADR-RES = tested on: NCI/ADR-RES
U-251 = tested on: U-251
TK-10 = tested on: TK-10
Hs-578T = tested on: Hs-578T
HCT-116 = tested on: HCT-116
SR = tested on: SR
EKVX = tested on: EKVX
SF-295 = tested on: SF-295
UACC-62 = tested on: UACC-62
HT-29 = tested on: HT-29
OVCAR-8 = tested on: OVCAR-8
PC-3 = tested on: PC-3
HOP-92 = tested on: HOP-92
OVCAR-3 = tested on: OVCAR-3
SN12C = tested on: SN12C
NCI-H522 = tested on: NCI-H522
K562 = tested on: K562
OVCAR-5 = tested on: OVCAR-5

Row | Structure (SMILES) | GI50 (OVCAR-4) | GI50 (CCRF-CEM) | GI50 (NCI/ADR-RES) | GI50 (U-251) | GI50 (TK-10) | GI50 (Hs-578T) | GI50 (HCT-116) | GI50 (SR) | GI50 (EKVX) | GI50 (SF-295) | GI50 (UACC-62) | GI50 (HT-29) | GI50 (OVCAR-8) | GI50 (PC-3) | GI50 (HOP-92) | GI50 (OVCAR-3) | GI50 (SN12C) | GI50 (NCI-H522) | GI50 (K562) | GI50 (OVCAR-5)
1 | CC(=O)Nc1ccc(-c2nc3ccccc3s2)cc1C | 42.5 µM (inactive) | > 100 µM (inactive) | 42.2 µM (inactive) | 71.6 µM (inactive) | 72.9 µM (inactive) | 45.4 µM (inactive) | 78.7 µM (inactive) | 27.7 µM (inactive) | 25.1 µM (inactive) | 40 µM (inactive) | 47.1 µM (inactive) | > 100 µM (inactive) | 53.1 µM (inactive) | 29 µM (inactive) | > 100 µM (inactive) | – | – | – | – | –
2 | N=C(N)N/N=C(/c1ccccc1)c1ccc(O)cc1O | 57 µM (inactive) | – | 95.3 µM (inactive) | 22.5 µM (inactive) | 31.6 µM (inactive) | 22 µM (inactive) | 29 µM (inactive) | 20.8 µM (inactive) | 22.2 µM (inactive) | 28.2 µM (inactive) | 30.1 µM (inactive) | 19.7 µM (inactive) | 24.6 µM (inactive) | 29 µM (inactive) | 36.6 µM (inactive) | 26.9 µM (inactive) | 29.4 µM (inactive) | 15.3 µM (inactive) | 46.3 µM (inactive) | 33 µM (inactive)
3 | CC1=NN(c2nc(N)nc(COc3ccc(N)cc3)n2)C(C)(C)C1 | > 100 µM (inactive) | > 100 µM (inactive) | > 100 µM (inactive) | > 100 µM (inactive) | > 100 µM (inactive) | > 100 µM (inactive) | > 100 µM (inactive) | > 100 µM (inactive) | > 100 µM (inactive) | > 100 µM (inactive) | > 100 µM (inactive) | > 100 µM (inactive) | > 100 µM (inactive) | > 100 µM (inactive) | > 100 µM (inactive) | – | – | – | > 100 µM (inactive) | –
4 | CC(=O)c1c2c(cc3c1CC1(Cc4cc5c(cc4C1)CCC5)C3)CCC2 | > 100 µM (inactive) | > 100 µM (inactive) | > 100 µM (inactive) | > 100 µM (inactive) | > 100 µM (inactive) | > 100 µM (inactive) | 75 µM (inactive) | > 100 µM (inactive) | > 100 µM (inactive) | > 100 µM (inactive) | – | 78.2 µM (inactive) | > 100 µM (inactive) | > 100 µM (inactive) | > 100 µM (inactive) | > 100 µM (inactive) | – | > 100 µM (inactive) | > 100 µM (inactive) | > 100 µM (inactive)
5 | N#CCCN(CCC#N)c1ccc(C(/N=N/c2ccc(Cl)cc2)=N\c2ccccc2)cc1 | 11.6 µM (inactive) | – | 10.8 µM (inactive) | 17.6 µM (inactive) | 15.5 µM (inactive) | 18.9 µM (inactive) | 12.1 µM (inactive) | 16 µM (inactive) | 12.1 µM (inactive) | 1.06 µM (active) | 6.49 µM (inactive) | 17.9 µM (inactive) | 15.1 µM (inactive) | 12.6 µM (inactive) | 16.4 µM (inactive) | 9.77 µM (inactive) | 18.4 µM (inactive) | 15.1 µM (inactive) | 41.7 µM (inactive) | 12.4 µM (inactive)
6 | C/C(=C\C(=O)O)C(=O)N(C)c1ccccc1I | > 100 µM (inactive) | > 100 µM (inactive) | > 100 µM (inactive) | > 100 µM (inactive) | – | > 100 µM (inactive) | > 100 µM (inactive) | > 100 µM (inactive) | > 100 µM (inactive) | > 100 µM (inactive) | > 100 µM (inactive) | – | > 100 µM (inactive) | > 100 µM (inactive) | > 100 µM (inactive) | > 100 µM (inactive) | > 100 µM (inactive) | – | > 100 µM (inactive) | > 100 µM (inactive)
7 | Oc1c(Cl)c(Cl)c(O)c(CCNc2ccc3ncccc3c2)c1Cl | 79.6 µM (inactive) | – | 12.2 µM (inactive) | 8.87 µM (inactive) | 13.4 µM (inactive) | 5.04 µM (inactive) | 14.5 µM (inactive) | 3.14 µM (inactive) | 16.7 µM (inactive) | 11.4 µM (inactive) | 10.9 µM (inactive) | 30.1 µM (inactive) | 12.1 µM (inactive) | 28 µM (inactive) | 30.5 µM (inactive) | 15.5 µM (inactive) | 13.9 µM (inactive) | 2.17 µM (inactive) | 3.47 µM (inactive) | 20.9 µM (inactive)
8 | COC1(OC)CCc2c(sc3ncnc(Nc4cccc(Br)c4)c23)C1 | 27.7 µM (inactive) | – | 25.5 µM (inactive) | 61.5 µM (inactive) | 10.6 µM (inactive) | > 100 µM (inactive) | 39.3 µM (inactive) | 26.2 µM (inactive) | 11.2 µM (inactive) | 72.8 µM (inactive) | 47.2 µM (inactive) | 20 µM (inactive) | 34.6 µM (inactive) | 43.3 µM (inactive) | 30.5 µM (inactive) | > 100 µM (inactive) | 68.4 µM (inactive) | 12.4 µM (inactive) | 26.2 µM (inactive) | 20.7 µM (inactive)
9 | CC1C=C(NCC2(CO)CCC2)N=C(N)N1 (stereo unspecified) | > 100 µM (inactive) | > 100 µM (inactive) | > 100 µM (inactive) | > 100 µM (inactive) | – | > 100 µM (inactive) | > 100 µM (inactive) | > 100 µM (inactive) | > 100 µM (inactive) | > 100 µM (inactive) | > 100 µM (inactive) | > 100 µM (inactive) | > 100 µM (inactive) | > 100 µM (inactive) | > 100 µM (inactive) | > 100 µM (inactive) | > 100 µM (inactive) | > 100 µM (inactive) | > 100 µM (inactive) | > 100 µM (inactive)
10 | N#CCOc1cccc(C2(N3CC=CCC3)CCCCC2)c1 | > 100 µM (inactive) | 42.3 µM (inactive) | > 100 µM (inactive) | > 100 µM (inactive) | > 100 µM (inactive) | > 100 µM (inactive) | > 100 µM (inactive) | > 100 µM (inactive) | > 100 µM (inactive) | > 100 µM (inactive) | > 100 µM (inactive) | > 100 µM (inactive) | 86.9 µM (inactive) | > 100 µM (inactive) | – | > 100 µM (inactive) | > 100 µM (inactive) | 57.8 µM (inactive) | 43 µM (inactive) | > 100 µM (inactive)
11 | O=C(c1ccccc1)c1ccc2c(c1)nc1n2C(c2c(Cl)cccc2Cl)SC1 (stereo unspecified) | 75.7 µM (inactive) | – | 40.3 µM (inactive) | 69.5 µM (inactive) | > 100 µM (inactive) | 84.1 µM (inactive) | 29 µM (inactive) | 34 µM (inactive) | 50.4 µM (inactive) | 27.6 µM (inactive) | 74.1 µM (inactive) | 56.1 µM (inactive) | 63.7 µM (inactive) | 38.1 µM (inactive) | 69 µM (inactive) | 38.8 µM (inactive) | > 100 µM (inactive) | 55.8 µM (inactive) | – | > 100 µM (inactive)
12 | Cc1ccc([N+](=O)[O-])cc1S(=O)(=O)Nc1ccc(C2=NNC(c3ccccc3)C2)cc1 (stereo unspecified) | 14.5 µM (inactive) | – | 21.1 µM (inactive) | – | 19.8 µM (inactive) | 22.5 µM (inactive) | 13.1 µM (inactive) | 15.1 µM (inactive) | 21 µM (inactive) | 3.02 µM (inactive) | 9.33 µM (inactive) | 27.4 µM (inactive) | 26.2 µM (inactive) | 16.7 µM (inactive) | 33.3 µM (inactive) | 4.74 µM (inactive) | 19.5 µM (inactive) | 13.8 µM (inactive) | 6.73 µM (inactive) | 53.2 µM (inactive)
13 | CC1=NN(c2cccc(Cl)c2)C2(SCC(=O)N2c2nc3ccccc3s2)/C1=C\c1ccccc1 (stereo unspecified) | 16.7 µM (inactive) | 28.2 µM (inactive) | 24.9 µM (inactive) | 19.7 µM (inactive) | 40.6 µM (inactive) | 18.4 µM (inactive) | 15.9 µM (inactive) | 22.3 µM (inactive) | 36.4 µM (inactive) | 21.6 µM (inactive) | – | 21 µM (inactive) | 19.5 µM (inactive) | 23.6 µM (inactive) | 7.21 µM (inactive) | 20.8 µM (inactive) | – | 14.6 µM (inactive) | 17.6 µM (inactive) | 22.4 µM (inactive)
14 | O=S(=O)(O)/C(=N\c1cccc(Cc2ccccc2)c1)Nc1cccc(Cc2ccccc2)c1 | 19.5 µM (inactive) | 27.2 µM (inactive) | 18.2 µM (inactive) | 19.6 µM (inactive) | 19.8 µM (inactive) | 19.1 µM (inactive) | 14.9 µM (inactive) | 21.9 µM (inactive) | 16.7 µM (inactive) | 18.2 µM (inactive) | 16.5 µM (inactive) | 18 µM (inactive) | 18.5 µM (inactive) | 18.3 µM (inactive) | 14.9 µM (inactive) | – | 19.5 µM (inactive) | 14.9 µM (inactive) | 31.4 µM (inactive) | 18.1 µM (inactive)
15 | O=c1[nH]cc(F)c(=O)[nH]1 [FLUOROURACIL] | 69.7 µM (inactive) | 35.2 µM (inactive) | 41.3 µM (inactive) | 44.3 µM (inactive) | 136 µM (inactive) | 225 µM (inactive) | – | 4.36 µM (inactive) | 299 µM (inactive) | 51.9 µM (inactive) | 13.9 µM (inactive) | – | 20.2 µM (inactive) | 50.6 µM (inactive) | 162 µM (inactive) | 27.3 µM (inactive) | 24.9 µM (inactive) | 37 µM (inactive) | 21.2 µM (inactive) | 172 µM (inactive)
